# Experimental data as given in patent publication US20250000971A1, “TLR4 AGONIST FOR MODULATING IMMUNE RESPONSE” (The Children's Medical Center Corporation, priority 2021, published 2025).
# “Also recorded” adds a separate entry of the source.
# Columns and labels:
# [1] = test system: human elderly peripheral blood mononuclear cells (PBMCs); assay: Enriched elderly screen: TNF-inducing activity in human elderly PBMCs (384-well); type: cell-based; details: screen of 310 molecules, PBMCs of 4 elderly donors, 10% autologous plasma
# Source text: FIG. 1A: A graphical overview depicting screen approach. From a high throughput screen previously conducted, 310 molecules were identified to be activators of either THP-1 cells (monocyte cell line) or primary human adult peripheral blood mononuclear cells (PBMCs). These 310 molecules were assembled into a stimulation plate and then applied to the PBMCs of 4 elderly donors (cultured with 10% autologous plasma). […] Z scores were averaged across all 4 elderly donors. The Z score and chemical structure for PVP-180 are indicated.
# In a previous high throughput screen (HTS), a number of hit molecules were identified as potentially being able to activate human immune cells. From 200,000 molecules screened, 177 had activity with NF-KB/IRF-inducing and leukocyte adherence/inducing activity. A separate small screen (9,000 molecules of the 200,000) was also conducted and 133 separate molecules had TNF-inducing activity in adult human peripheral blood mononuclear cells (PBMCs). These molecules originated from various bioactive and commercial libraries such as ChemDiv, ChemBridge, and Asinex. All libraries were owned and provided by the Institute of Chemistry and Cell Biology (ICCB)-Longwood (Harvard Medical School). […]
# [2] = test system: human adult and elderly PBMCs; assay: TNF production in human adult and elderly PBMCs, 96-well format, 24 h stimulation; type: cell-based
# [3] = test system: human adult and elderly PBMCs; assay: Cytokine responses of PBMC supernatants by 14-multiplex assay; type: cell-based
# [4] = test system: wild type murine bone marrow derived dendritic cells (BMDCs); assay: TNF and IL-6 production by wild type murine bone marrow derived dendritic cells; type: cell-based; details: N=4
# human TLR4 = biological target: T1, human TLR4 (Homo sapiens, UniProt O00206+Q9Y6Y9); assay: PRR-transfected HEK reporter cell lines, TLR4; type: cell-based; details: HEK reporter cell line, screened at 33 μM
# T1 construct: expressed in transfected cells; host or cells: HEK reporter cell line
# T1 sequence (O00206 24-839): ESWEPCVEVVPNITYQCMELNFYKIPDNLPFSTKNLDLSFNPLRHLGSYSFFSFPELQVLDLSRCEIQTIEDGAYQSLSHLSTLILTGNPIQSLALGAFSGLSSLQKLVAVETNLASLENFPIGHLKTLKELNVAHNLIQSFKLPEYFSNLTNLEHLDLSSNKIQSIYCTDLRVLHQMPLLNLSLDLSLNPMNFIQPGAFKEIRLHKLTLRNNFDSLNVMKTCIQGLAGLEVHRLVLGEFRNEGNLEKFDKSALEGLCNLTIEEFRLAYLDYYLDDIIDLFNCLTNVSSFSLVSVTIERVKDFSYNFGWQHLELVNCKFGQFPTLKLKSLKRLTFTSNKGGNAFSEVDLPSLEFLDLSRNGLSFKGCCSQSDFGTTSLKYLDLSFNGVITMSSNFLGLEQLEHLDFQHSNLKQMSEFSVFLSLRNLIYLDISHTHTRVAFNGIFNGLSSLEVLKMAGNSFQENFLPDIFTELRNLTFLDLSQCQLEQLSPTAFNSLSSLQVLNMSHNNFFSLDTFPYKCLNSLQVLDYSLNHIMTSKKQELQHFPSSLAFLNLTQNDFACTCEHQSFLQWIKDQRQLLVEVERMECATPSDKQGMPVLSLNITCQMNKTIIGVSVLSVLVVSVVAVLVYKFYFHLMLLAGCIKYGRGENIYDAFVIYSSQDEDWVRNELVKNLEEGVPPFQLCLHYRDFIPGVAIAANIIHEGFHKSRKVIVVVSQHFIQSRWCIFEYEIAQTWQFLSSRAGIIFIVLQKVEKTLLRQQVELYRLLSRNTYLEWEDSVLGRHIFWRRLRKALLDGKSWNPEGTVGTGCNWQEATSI
# T1 sequence (Q9Y6Y9 19-160): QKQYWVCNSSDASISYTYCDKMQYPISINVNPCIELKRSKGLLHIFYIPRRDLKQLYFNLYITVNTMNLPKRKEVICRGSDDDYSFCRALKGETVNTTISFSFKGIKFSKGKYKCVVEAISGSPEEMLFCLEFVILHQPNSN
# Description: (§1) FIGS. 3A-3B. PVP-180 is a novel small molecule TLR4 agonist. FIG. 3A: PVP-180 was screened at 33 μM using pattern recognition receptor (PRR)-transfected HEK reporter cell lines. Cell line responses are also indicated to PRR-specific positive controls as well as a negative control. […] Further assays confirm that PVP-180 chemical stock is free of detectable endotoxin. FIG. 3B: PVP-180 was tested with THP-1 reporter cells as well as THP-1 cells with MyD88, TBK1, or IRF3 knockout. […] Results are reported as a percentage of TNF activity.
# [5] = test system: pattern recognition receptors (PRR) other than TLR4; assay: PRR-transfected HEK reporter cell lines, other PRRs; type: cell-based; details: screened at 33 μM
# Description: as §1
# NF-KB = assay: THP-1 reporter cells and THP-1 cells with MyD88, TBK1 or IRF3 knockout; type: cell-based; details: THP-1 reporter cells versus knockout strains
# Description: as §1
# [6] = test system: Balb/c murine model of SARS-COV-2 immunization; assay: Balb/c murine model of SARS-COV-2 immunization with rSpike with or without adjuvant; type: in vivo, mice; details: for rSpike immunogenicity: adult (12 weeks) and aged mice (52 weeks), booster on Day 14
compound,measurement,setting,value
CC1CCc2cc(F)ccc2N1C(=O)c1ccc(N2CC3CC(C2)c2cccc(=O)n2C3)c(NC(=O)c2cccnc2)c1 (centres unmarked) [PVP-180],TNF-inducing activity toward elderly PBMCs,[1],robust activity
same,TNF response as fold-change over the positive control (R848),[2]; at 3 μM and above,more adult-like TNF response
same,production of TNF,"[2]; elderly and adult PBMCs, stimulated for 24 hours, N=4",titration-dependent production of TNF
same,"innate immune response (cytokines), elder versus younger adult leucocytes",[3]; 14-multiplex assay,greater innate immune response in elder leucocytes than in younger adult controls
same,"production of multiple cytokines including TNF, IFNγ and IL-10","[3]; both populations (adult and elderly PBMCs), PVP-180 at 25 μM, N=4 donors",induced the production of multiple cytokines
same,"cytokine (TNF, IL-6, IL-10, IL-12, GM-CSF, IFN-γ, IL1-β, IP-10) and/or chemokine (CCL2, CCL5, CXCL8) production","[3]; human PBMC in vitro, compound alone",sufficient to induce cytokine
same,induction of IL-6 production,[4],concentration-dependent induction
same,induction of TNF production,[4],concentration-dependent induction
same,activity toward TLR4,human TLR4,strong activity; also recorded: significant activity
same,activity toward the other PRRs tested,[5],not the other PRRs tested
same,"dependence of mechanism on MyD88, TBK1, IRF3",NF-KB,"dependent upon MyD88, TBK1, and IRF3"
same,rSpike immunogenicity,[6],enhanced rSpike immunogenicity
same,rSpike immunogenicity,[6]; listed as compound of Formula (I),enhanced antigen-specific immune response
same,adjuvant activity in adult mice,"[6]; adult mice, overall IgG at Day 28",adjuvant activity in immunized adult mice. though with a less pronounced effect than in aged mice
same,anti-rSpike IgG2 antibodies,[6]; aged mice,increase
same,antibody titers versus rSpike alone,"[6]; aged mice, overall IgG at Day 28",substantially higher antibody titers
same,anti-rSpike IgG1 subtype antibodies,[6]; both adult and aged mice,primarily enhanced the production
